Assay results as given in US20250235499A1, “ANTI-OVARIAN CANCER PHARMACEUTICAL COMPOSITION AND ACTION TARGET THEREOF” (Zhejiang Chinese Medical University, priority 2024, published 2025).

What was measured:
Type in all cases: cell-based, human
[1] = test system: SKOV3 ovarian cancer cells; test: CCK-8 detection of proliferation of an ovarian cancer cell; details: CA 50-800 μmol/L, BDMC 3.125-50 μmol/L, 24 and 48 hours, concentration- and time-dependent
Description: (§1) SKOV3 and Hey ovarian cancer cells in logarithmic growth phase were digested with 0.1% trypsin to prepare a cell suspension, and the cell concentration was quantified at 10^4 cells/mL. 200 μL of the cell suspension each well was inoculated into a 96 well plate, and 200 μL of PBS was added to each well of the outer circle to eliminate edge effects. The 96 well plate was placed in a 37° C. incubator containing 5% CO2 for 24 hours each. After the cells adhered to the wall, the culture medium was discarded, and the cells were washed three times with PBS buffer. New culture medium containing different concentrations of CA (0, 50, 100, 200, 400, and 800 μmol/L) and BDMC ([…]) were added, with 6 parallel wells in each group. After adding a pharmaceutical, cultivation was further conducted, the 96 well plate was taken out at 24 hours and 48 hours, the original culture medium was discarded, the cells were washed three times with PBS, 200 μL of prepared serum-free culture medium containing 10% CCK-8 was added, and incubated at 37° C. for 1 hour. A well with drug concentration of 0 μmol/L was used as a control well and a well without cells and only added with a CCK-8 solution as a blank well. An absorbance at a wavelength of 450 nm was measured using a microplate reader, and an IC50 value was calculated using GraphPad Prism 8 software. […]

Hey ovarian cancer cells [2] = test: as above; details: CA 50-800 μmol/L, BDMC 3.125-50 μmol/L, 24 and 48 hours, concentration- and time-dependent
Description: as §1

[3] = test system: CDK4, Cyclin D1, P21 in SKOV3 cells; test: Expression of cell cycle related proteins in cells
[4] = test system: SKOV3 ovarian cancer cells; test: Cell cycle by flow cytometry (PI) with MCM2 knockdown or overexpression
Description: (§2) SKOV3 and Hey ovarian cancer cells in logarithmic growth phase were knocked down with MCM2 (Control group, sh-NC group, sh-MCM2 group) and overexpressed with MCM2 (Control group, OE-NC group, OE-MCM2 group). The original culture medium was discarded, washed with PBS buffer, and digested with 0.1% trypsin. A corresponding culture medium was added to prepare a cell suspension. Cells were counted using a hemocytometer and a cell concentration was quantified at 5×10^4 cells/mL. 1500 μL of each well was inoculated into a 6 well plate, with 3 parallel wells in each group, and incubated in a 37° C. incubator containing 5% CO2 for 24 hours. After the cultivation time was over, the six well plate was taken out and aspirated the original culture medium from the wells for later use. The PBS buffer was added to gently wash the cells three times. 500 μL of 0.1% trypsin was added to each well to wait for the cells to be blown off with a pipette, then the original culture medium from the wells was added to terminate digestion. A pipette was used to gently blow off all the cells on the wall of the six well plate. The cell suspension was aspirated, transferred to a centrifuge tube, and centrifuged at 4° C. and 1000 rpm for 5 minutes. The supernatant was discarded, and 1 mL of pre-cooled PBS buffer was added to gently resuspend the cells, and transferred to a 1.5 mL sterile centrifuge tube. The mixture was centrifuged at 4° C. and 1000 rpm for 5 minutes, the supernatant was discarded, and the bottom of the centrifuge tube was gently tapped to disperse the cells. 1 mL of pre-cooled 70% ethanol was added, blown and mixed well to form a cell suspension, and placed in a refrigerator at 4° C. for 24 hours. After fixation, a water bath kettle was opened in advance, the temperature was set to 37° C., the centrifugation was performed for 5 minutes at 4° C. and 1000 rpm, and the supernatant was discarded. 1 mL of pre-cooled PBS buffer was added and gently resuspended to wash the cells. The mixture was centrifuged at 4° C. and 1000 rpm for 5 minutes, the supernatant was discarded, and the bottom of the centrifuge tube was gently tapped to disperse the cells. 500 μL of PI staining working solution containing RNase was added to each cell sample to be tested, and placed in a 37° C. dark water bath for 30 minutes. A flow cytometer was used to detect red fluorescence at an excitation wavelength of 488 nm, while also measuring light scattering. A modfit 3.2 version was used for cell DNA cycle analysis.

Hey ovarian cancer cells [5] = test: as above
Description: as §2

[6] = test system: E-cadherin, N-cadherin, Vimentin in Hey cells; test: Expression of EMT related proteins in cells
[7] = test system: MCM2 protein in SKOV3 cells; test: MCM2 protein expression in ovarian cancer cell after intervention; details: SKOV3, 24 hours, 100 μmol/L CA, 6.25 μmol/L BDMC; compared to the Control group
Description: (§3) The effect of intervention on MCM2 protein expression in the SKOV3 and Hey ovarian cancer cells for 24 hours in the CA group using 100 μmol/L CA, the BDMC group using 6.25 μmol/L BDMC, and the CA+BDMC group using 100 μmol/L CA+6.25 μmol/L BDMC in Example 1 was shown in FIGS. 16A-16B, wherein A represented the expression of MCM2 protein in SKOV3 cells; B represented the expression of MCM2 protein in Hey cells compared to the Control group, #P<0.05, ##P<0.01; and compared with the CA+BDMC group, &P<0.05, &&P<0.01.

[8] = test system: MCM2 protein in Hey cells; test: as above; details: 24 hours, 100 μmol/L CA, 6.25 μmol/L BDMC, compared to the Control group
Description: as §3

[9] = SKOV3 OE-MCM2 cells (MCM2 overexpression), vs OE-MCM2 group
[10] = SKOV3 OE-NC cells (empty vector), vs OE-NC group
[11] = SKOV3 sh-MCM2 cells (MCM2 knockdown), vs sh-MCM2 group
[12] = SKOV3 sh-NC cells (empty vector), vs sh-NC group
[13] = Hey OE-MCM2 cells (MCM2 overexpression), vs OE-MCM2 group
[14] = Hey OE-NC cells (empty vector), vs OE-NC group
[15] = Hey sh-MCM2 cells (MCM2 knockdown), vs sh-MCM2 group
[16] = Hey sh-NC cells (empty vector), vs sh-NC group

Structure (SMILES): COc1ccc(-c2coc3cc(O)ccc3c2=O)cc1O [CA, calycosin]
- effect on proliferation [1]: proliferative inhibitory effects
- effect on proliferation (Hey ovarian cancer cells [2]): proliferative inhibitory effects
- expression of CDK4 [3, 9]: no significant change
- expression of Cyclin D1 [3, 9]: no significant change
- expression of P21 [3, 9]: no significant change
- expression of CDK4 [3, 10]: significantly decreased
- expression of Cyclin D1 [3, 10]: significantly decreased
- expression of P21 [3, 10]: significantly increased
- expression of CDK4 [3, 11]: no significant change
- expression of Cyclin D1 [3, 11]: no significant change
- expression of P21 [3, 11]: no significant change
- expression of CDK4 [3, 12]: significantly decreased
- expression of Cyclin D1 [3, 12]: significantly decreased
- expression of P21 [3, 12]: significantly increased
- percentage of G0/G1 phase cells [4, 9]: no significant change
- percentage of G0/G1 phase cells [4, 10]: significantly increased
- percentage of G0/G1 phase cells [4, 11]: no significant change
- percentage of G0/G1 phase cells [4, 12]: significantly increased
- percentage of G0/G1 phase cells (Hey ovarian cancer cells [5]; [13]): no significant change
- percentage of G0/G1 phase cells (Hey ovarian cancer cells [5]; [14]): significantly increased
- percentage of G0/G1 phase cells (Hey ovarian cancer cells [5]; [15]): no significant change
- percentage of G0/G1 phase cells (Hey ovarian cancer cells [5]; [16]): significantly increased
- expression of E-cadherin [6, 13]: no significant change
- expression of N-cadherin [6, 13]: no significant change
- expression of Vimentin [6, 13]: no significant change
- expression of E-cadherin [6, 14]: significantly increased
- expression of N-cadherin [6, 14]: significantly decreased
- expression of Vimentin [6, 14]: significantly decreased
- expression of E-cadherin [6, 15]: no significant change
- expression of N-cadherin [6, 15]: no significant change
- expression of Vimentin [6, 15]: no significant change
- expression of E-cadherin [6, 16]: significantly increased
- expression of N-cadherin [6, 16]: significantly decreased
- expression of Vimentin [6, 16]: significantly decreased
- expression of the MCM2 protein [7]: significantly decreased
- expression of the MCM2 protein [8]: significantly decreased
